Source: US5792831A, “Analogues of magainin peptides containing D-amino acids” (priority 1994, dated 1998)
Square brackets hold non-standard residues; d marks the D form. Ends that are not written are not given here. Peptide text beside a SMILES is read from it.

Tests used:
Format in all cases: cell-based
[1] = test system: melanoma cell line WM1985; test: Melanoma growth reduction (Example 5); conditions: PF media
Protocol: (§1) Melanoma cell lines WM-239-A (metastatic melanoma), WM278 (primary melanoma), WM793 (primary melanoma) and WM1158 (metastatic melanoma) were seeded in 24-well plates at a concentration of 7.5×10^4 cells/ml containing 2% tumor medium.
(§2) Peptides (SEQ ID NO:6) and D-(SEQ ID NO:6), in which each amino acid residue is a D-amino residue or a glycine residue, were frozen at -20° C. in […] aliquots at a concentration of 25 mg/ml. Each peptide was then dissolved in sterile distilled water at a dilution of 1:1,000 or 1:5,000 to provide peptide concentrations of 25 μg/ml or 5 μg/ml, respectively. The peptides at the 25 μg/ml or 5 μg/ml concentrations were then added to the plates containing the melanoma cells. The amount of ^3 H-thymidine incorporation for each well was taken on days 1, 3, and 7.
(§3) Peptides (SEQ ID NO:10) and D-(SEQ ID NO:10), in which each amino acid is a D-amino acid residue, are tested for % growth reduction of melanoma cell lines WM852 (grown in 2% tumor media or PF media), WM983A (grown in 2% tumor media or PF media), WM793 (grown in 2% tumor media), and WM1985 (grown in PF media) according to the procedure of Example 4, except that only a concentration of 25 μg/ml was employed for (SEQ ID NO:10), and concentrations of 1.0, 2.5, 5.0, 10.0, and 25.0 μg/ml were employed for D-(SEQ ID NO:10).

[2] = test system: melanoma cell line WM793; test: Melanoma growth reduction (Example 5); conditions: 2% tumor media
Protocol: as §1, §2, §3

[3] = test system: melanoma cell line WM852; test: Melanoma growth reduction (Example 5); conditions: for % Growth Reduction (7 days) WM852-2%: 2% tumor media; for % Growth Reduction (7 days) WM852-PF: PF media
Protocol: as §1, §2, §3

[4] = test system: melanoma cell line WM983A; test: Melanoma growth reduction (Example 5); conditions: for % Growth Reduction (7 days) WM-983A-2%: 2% tumor media; for % Growth Reduction (7 days) WM983A-PF: PF media
Protocol: as §1, §2, §3

[5] = test system: WM-239-A (metastatic melanoma); test: Melanoma growth reduction, 3H-thymidine incorporation (Example 4); conditions: 2% tumor medium
Protocol: as §1, §2

[6] = test system: WM1158 (metastatic melanoma); test: as above; conditions: 2% tumor medium
Protocol: as §1, §2

[7] = test system: WM278 (primary melanoma); test: as above; conditions: 2% tumor medium
Protocol: as §1, §2

[8] = test system: WM793 (primary melanoma); test: as above; conditions: 2% tumor medium
Protocol: as §1, §2

In the case of CC(C)C[C@@H](NC(=O)[C@@H](CCCCN)NC(=O)[C@@H](CCCCN)NC(=O)[C@@H](CC(C)C)NC(=O)[C@@H](CC(C)C)NC(=O)[C@@H](CCCCN)NC(=O)[C@@H](CCCCN)NC(=O)[C@@H](CC(C)C)NC(=O)[C@@H](CCCCN)NC(=O)[C@@H](CCCCN)NC(=O)[C@@H](CC(C)C)NC(=O)[C@@H](CC(C)C)NC(=O)[C@@H](CCCCN)NC(=O)[C@H](N)CCCCN)C(N)=O [D-(SEQ ID NO:10)] (H-[dK][dK][dL][dL][dK][dK][dL][dK][dK][dL][dL][dK][dK][dL]-NH2), the “% Growth Reduction (7 days) WM1985-PF” value ([1]; dose 1.0 μg/ml) is reported as 5.5%, the “% Growth Reduction (7 days) WM1985-PF” value ([1]; dose 2.5 μg/ml) is reported as 23.6% and the “% Growth Reduction (7 days) WM1985-PF” value ([1]; dose 5.0 μg/ml) is reported as 52.1%. The “% Growth Reduction (7 days) WM1985-PF” value ([1]; dose 10.0 μg/ml) was 84.3%, the “% Growth Reduction (7 days) WM1985-PF” value ([1]; dose 25 μg/ml) was 92.6% and the “% Growth Reduction (7 days) WM793-2%” value ([2]; dose 2.5 μg/ml) was 18.2%. For the same compound, the “% Growth Reduction (7 days) WM793-2%” value ([2]; dose 5.0 μg/ml) was 0%, the “% Growth Reduction (7 days) WM793-2%” value ([2]; dose 10.0 μg/ml) was 12.3% and the “% Growth Reduction (7 days) WM793-2%” value ([2]; dose 25 μg/ml) was 84.9%. The “% Growth Reduction (7 days) WM852-2%” value ([3]; dose 1.0 μg/ml) was 3.0%, the “% Growth Reduction (7 days) WM852-PF” value ([3]; dose 1.0 μg/ml) was 2.9% and the “% Growth Reduction (7 days) WM852-2%” value ([3]; dose 2.5 μg/ml) was 5.4%. For the same compound, the “% Growth Reduction (7 days) WM852-PF” value ([3]; dose 2.5 μg/ml) was 22.9%, the “% Growth Reduction (7 days) WM852-2%” value ([3]; dose 5.0 μg/ml) was 8.8% and the “% Growth Reduction (7 days) WM852-PF” value ([3]; dose 5.0 μg/ml) was 32.4%. For the same compound, the “% Growth Reduction (7 days) WM852-2%” value ([3]; dose 10.0 μg/ml) was 16.2%, the “% Growth Reduction (7 days) WM852-PF” value ([3]; dose 10.0 μg/ml) was 80.6% and the “% Growth Reduction (7 days) WM852-2%” value ([3]; dose 25 μg/ml) was 84.7%. The “% Growth Reduction (7 days) WM852-PF” value ([3]; dose 25 μg/ml) was 91.1%, the “% Growth Reduction (7 days) WM-983A-2%” value ([4]; dose 1.0 μg/ml) was 0% and the “% Growth Reduction (7 days) WM983A-PF” value ([4]; dose 1.0 μg/ml) was 3.3%. For the same compound, the “% Growth Reduction (7 days) WM-983A-2%” value ([4]; dose 2.5 μg/ml) was 0%, the “% Growth Reduction (7 days) WM983A-PF” value ([4]; dose 2.5 μg/ml) was 13.9% and the “% Growth Reduction (7 days) WM-983A-2%” value ([4]; dose 5.0 μg/ml) was 0%. The “% Growth Reduction (7 days) WM983A-PF” value ([4]; dose 5.0 μg/ml) was 29.8%, the “% Growth Reduction (7 days) WM-983A-2%” value ([4]; dose 10.0 μg/ml) was 13.8% and the “% Growth Reduction (7 days) WM983A-PF” value ([4]; dose 10.0 μg/ml) was 84.9%. The “% Growth Reduction (7 days) WM-983A-2%” value ([4]; dose 25 μg/ml) was 71.3% and the “% Growth Reduction (7 days) WM983A-PF” value ([4]; dose 25 μg/ml) was 90.0%.
In the case of “(SEQ ID NO:6): peptide of SEQ ID NO:6, comparator not marked D; possibly the same as (SEQ ID NO:6)-NH2 (GIGKFLKSAKKFGKAFVKILNS; not fully specified) [reference compound]”, the “% Growth Reduction (7 days) WM239-A” value ([5]; dose 5 μg/ml) is reported as 0%, the “% Growth Reduction (7 days) WM239-A” value ([5]; dose 25 μg/ml) is reported as 95.8% and the “% Growth Reduction (7 days) WM1158” value ([6]; dose 5 μg/ml) is reported as 0%. The “% Growth Reduction (7 days) WM1158” value ([6]; dose 25 μg/ml) was 98.5%, the “% Growth Reduction (7 days) WM-278” value ([7]; dose 5 μg/ml) was 0% and the “% Growth Reduction (7 days) WM-278” value ([7]; dose 25 μg/ml) was 96.0%. For the same compound, the “% Growth Reduction (7 days) WM793” value ([8]; dose 5 μg/ml) was 11.6% and the “% Growth Reduction (7 days) WM793” value ([8]; dose 25 μg/ml) was 98.0%.
For “(SEQ ID NO:10): peptide of SEQ ID NO:10, comparator not marked D; possibly the same as (SEQ ID NO:10)-NH2 (KKLLKKLKKLLKKL; not fully specified) [reference compound]”, the “% Growth Reduction (7 days) WM1985-PF” value ([1]; dose 25 μg/ml) was 43.0%, the “% Growth Reduction (7 days) WM793-2%” value ([2]; dose 25 μg/ml) was 8.3% and the “% Growth Reduction (7 days) WM852-2%” value ([3]; dose 25 μg/ml) was 0%. For the same compound, the “% Growth Reduction (7 days) WM852-PF” value ([3]; dose 25 μg/ml) was 54.0%, the “% Growth Reduction (7 days) WM-983A-2%” value ([4]; dose 25 μg/ml) was 0% and the “% Growth Reduction (7 days) WM983A-PF” value ([4]; dose 25 μg/ml) was 60.5%.
